# Patent US20230357168A1, “CARBOBICYCLIC NUCLEOSIDES FOR TREATMENT OF VIRAL INFECTION” (The Chinese University of Hong Kong, priority 2022, published 2023)
# System: SARS-CoV-2 viral strains (including the original Wuhan strain and Delta and Omicron variants)
# Assay: Replication of SARS-CoV-2 viral strains in A549-ACE2 cell model (FIG. 2)
# Format: cell-based
# Settings: done in triplicate
smiles,measurement,value
"O=c1[nH]/c(=N\O)ccn1[C@@H]1C2=CCC[C@@H](O)[C@@H]2[C@@H](O)[C@H]1O [Compound 48, 4-(hydroxyimino)-1-((1R,2S,3R,3aR,4R)-2,3,4-trihydroxy-2,3,3a,4,5,6-hexahydro-1H-inden-1-yl)-3,4-dihydropyrimidin-2(1H)-one]",replication of different SARS-CoV-2 viral strains,inhibits the replication
